Results as given in patent publication US6767890B1, “Peptides having anti-cancer and anti-inflammatory activity” (priority 1998, dated 2004).
pIC50: −log10 of the molar value.

Target: Ca++/Calmodulin Dep. PK II
Assay: Ca++/Calmodulin Dep. PK II enzyme assay
Type: biochemical, rat
Conditions: historical value; read-out: ^1IC, (IC50 of reference compound)
Procedure: The peptide was further screened in vitro in a variety of enzyme and biochemical assays. Methods employed were adapted from the scientific literature to maximize reliability and reproducibility. The primary literature reference for each assay is listed in Table 11 opposite the results for each assay.
Results presented in Table 10, “Results,” are the average of duplicate determinations, unless otherwise noted.
Reference compounds were tested concurrently at 5 concentrations as an integral part of each assay to ensure the validity of the results obtained.
Enzyme assays were performed under conditions described in Table 8, “Experimental Conditions.”. The commercial suppliers and catalog numbers of substrates employed in this study are given in Table 7, “Material Sources.” The name, commercial source, and catalog numbers of concurrent reference compounds (controls) employed in this study are given in Table 9, “Reference Compound Data.” The reaction catalyzed by each enzyme is listed in Table 8, “Experimental Conditions.”
Biochemical assay results are presented in Table 10, as the percent inhibition of specific binding or activity, and unless noted are the average of duplicate tubes tested at each concentration.

How did the pIC50 turn out when `CN1CCN(CCCN2c3ccccc3Sc3ccc(C(F)(F)F)cc32)CC1` [Trifluoperazine, reference compound] was run?
Its pIC50 is 4.57.
